The source made the active and inactive calls.

Experiment [1] in a line: Luminescence Cell-Based Dose Retest to Confirm Inhibitors of Cancer Stem Cells. [Related pubchem assays (depositor defined):AID2717, AID2721]. Conditions: Homo sapiens. It is filed as functional.
Another experiment concerns INS1. Briefly: beta cell apoptosis inhibitors, cytokine rescue, dose response, luminescence, retest (AID 449756).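 Note: cell death triggered by IL-1 beta plus TNF-alpha plus IFN-gamma mixture; protective hits raise ATP signal compared with cytokine alone wells.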 It is filed as functional, cell-based. Conditions: Rattus norvegicus.
A short description of experiment [2]: Shn3 3'UTR reporter inhibitors, dose response, cell-based, Clone20 osteoblasts, firefly luciferase, cherry-picked (AID 624132).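 Note: firefly luciferase luminescence from reporter carrying the Shn3 3'UTR in osteoblasts.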 It is filed as functional.
Experiment [3] in a line: HepG2 cell cytotoxicity, dose response, cytotoxicity control for Shn3 inhibitor project, CellTiter-Glo, cherry-picked (AID 624134). The format is functional, cell-based.
Experiment [4] can be described thus: control 3'UTR Renilla luciferase suppression, dose response, counter-screen for Shn3 inhibitor project, cell-based, Clone20-Shn3RL, cherry-picked (AID 624133). It is filed as functional.
For experiment [5], the target named is RNA-editing ligase 1, mitochondrial (Trypanosoma brucei brucei, UniProt P86926). As to the kind of experiment: TbREL1 ligase inhibitors, dose response, biochemical, fluorescence, Trypanosoma brucei (AID 1117295). The format is functional.
For the next experiment, the target named is Protein Tat (Human immunodeficiency virus type 1 group M subtype B (isolate HXB2)(HIV-1), UniProt P04608). It is filed as functional.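 Note: tat binding to TAR RNA read out by fluorescence polarization.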
Experiment [6] can be described thus: A375 melanoma cell viability loss, dose response, counter-screen for MITF inhibitor project, CellTiter-Glo luminescence, dry powder, set 4 (AID 624364).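 Note: A375 melanoma cells are MITF independent so this is a counter screen.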 It is filed as functional, cell-based. Conditions: A-375.
Experiment [7] in a line: A375 melanoma cell cytotoxicity, dose response, counter-screen for MITF inhibitor project, CellTiter-Glo luminescence, dry powder, set 2 (AID 624489).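 Note: actives are compounds lowering A375 viability meaning general cytotoxicity.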 The format is functional, cell-based. As to conditions: A-375.
Experiment [8] deals with T1, RNA-binding protein pos-1 (Caenorhabditis elegans, UniProt G5EF15).
T1 sequence (G5EF15 whole entry): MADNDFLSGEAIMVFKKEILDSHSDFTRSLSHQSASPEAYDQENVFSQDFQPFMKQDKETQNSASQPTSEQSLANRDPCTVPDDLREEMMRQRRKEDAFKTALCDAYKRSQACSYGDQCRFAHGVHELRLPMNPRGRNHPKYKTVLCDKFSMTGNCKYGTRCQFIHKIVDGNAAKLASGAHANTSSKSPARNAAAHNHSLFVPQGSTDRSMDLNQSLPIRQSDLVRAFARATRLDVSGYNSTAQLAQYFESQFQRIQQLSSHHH
As to the kind of experiment: inhibitors of POS-1/mex-3 RNA binding, dose response, biochemical, fluorescence polarization (AID 1964).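 Note: purified POS-1 fused to maltose binding protein made in E. coli; potency of compounds blocking POS-1 binding to fluorescent RNA.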

In experiment [9] the target is T2, Zinc finger protein mex-5 (Caenorhabditis elegans, UniProt Q9XUB2).
T2 sequence (Q9XUB2 whole entry): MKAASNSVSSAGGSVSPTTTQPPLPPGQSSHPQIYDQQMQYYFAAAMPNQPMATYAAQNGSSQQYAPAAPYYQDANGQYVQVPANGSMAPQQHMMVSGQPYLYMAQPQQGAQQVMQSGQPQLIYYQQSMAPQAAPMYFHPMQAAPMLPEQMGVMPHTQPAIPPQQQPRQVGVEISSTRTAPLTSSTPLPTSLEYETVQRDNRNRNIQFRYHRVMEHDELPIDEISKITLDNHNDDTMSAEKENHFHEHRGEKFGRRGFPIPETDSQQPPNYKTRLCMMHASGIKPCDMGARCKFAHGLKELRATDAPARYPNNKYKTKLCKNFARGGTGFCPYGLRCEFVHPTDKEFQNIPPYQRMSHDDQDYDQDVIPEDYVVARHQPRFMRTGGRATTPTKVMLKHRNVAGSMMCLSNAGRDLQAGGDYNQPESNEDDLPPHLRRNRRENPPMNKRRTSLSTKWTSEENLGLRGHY
Briefly: MEX-5/TCR-2 RNA interaction inhibitors, dose response, biochemical, C. elegans, fluorescence polarization (AID 1960).

Experiment [10] concerns the target Intestinal-type alkaline phosphatase (Mus musculus, UniProt P24822). Briefly: PubChem AID 488785. It is filed as functional.
In experiment [11] the target is T3, Alkaline phosphatase, tissue-nonspecific isozyme (Homo sapiens, UniProt P05186).
T3 sequence (P05186 whole entry): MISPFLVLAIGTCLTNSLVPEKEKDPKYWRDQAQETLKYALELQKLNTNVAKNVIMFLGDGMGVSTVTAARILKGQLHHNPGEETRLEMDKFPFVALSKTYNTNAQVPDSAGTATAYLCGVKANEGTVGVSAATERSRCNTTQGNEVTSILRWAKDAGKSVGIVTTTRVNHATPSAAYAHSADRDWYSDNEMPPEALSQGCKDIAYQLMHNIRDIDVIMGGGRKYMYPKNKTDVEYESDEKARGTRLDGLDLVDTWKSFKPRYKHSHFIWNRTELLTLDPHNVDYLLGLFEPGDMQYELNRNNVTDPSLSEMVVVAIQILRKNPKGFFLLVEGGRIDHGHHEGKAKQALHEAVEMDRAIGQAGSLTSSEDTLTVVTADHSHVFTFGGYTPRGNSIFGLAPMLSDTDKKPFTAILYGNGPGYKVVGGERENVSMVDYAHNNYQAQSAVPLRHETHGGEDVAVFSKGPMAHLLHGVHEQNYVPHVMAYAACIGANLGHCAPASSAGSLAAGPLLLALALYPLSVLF
As to the kind of experiment: TNAP enzyme inhibition by screening hits, dose response, selectivity assay for mouse IAP inhibitor project, biochemical, human TNAP, uHTS hits (AID 488906). The format is functional.

The target of experiment [12] is Intestinal-type alkaline phosphatase (Homo sapiens, UniProt P09923). Briefly: inhibition of human intestinal alkaline phosphatase – biochemical, dose response (AID 488876). It is filed as functional.
For experiment [13], the target named is T4, Rac GTPase-activating protein 1 (Homo sapiens, UniProt Q9H0H5).
T4 sequence (Q9H0H5 whole entry): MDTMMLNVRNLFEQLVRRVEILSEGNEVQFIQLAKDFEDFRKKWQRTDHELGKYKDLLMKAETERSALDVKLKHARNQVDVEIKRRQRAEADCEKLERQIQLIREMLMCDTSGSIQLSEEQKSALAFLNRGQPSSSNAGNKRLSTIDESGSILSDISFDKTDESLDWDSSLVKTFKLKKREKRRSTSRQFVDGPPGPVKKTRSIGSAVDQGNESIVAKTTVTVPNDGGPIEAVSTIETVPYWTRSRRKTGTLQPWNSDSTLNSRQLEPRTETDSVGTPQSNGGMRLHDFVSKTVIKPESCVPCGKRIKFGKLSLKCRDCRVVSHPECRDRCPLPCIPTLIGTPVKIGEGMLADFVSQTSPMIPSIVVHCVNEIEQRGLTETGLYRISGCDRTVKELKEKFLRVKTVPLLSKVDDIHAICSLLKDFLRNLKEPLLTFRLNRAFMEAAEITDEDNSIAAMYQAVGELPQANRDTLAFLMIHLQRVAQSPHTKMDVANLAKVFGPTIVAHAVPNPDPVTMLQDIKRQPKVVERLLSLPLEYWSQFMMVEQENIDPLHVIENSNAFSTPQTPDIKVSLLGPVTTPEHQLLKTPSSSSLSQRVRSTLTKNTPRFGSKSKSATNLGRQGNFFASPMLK
As to the kind of experiment: MgcRacGAP GTPase-activating activity inhibitors, confirmation, biochemical, ADP Hunter fluorescence, primary and confirmatory (AID 624330). The format is functional.

Experiment [14] concerns the target T5, Histone-lysine N-methyltransferase NSD2 (Homo sapiens, UniProt O96028).
T5 sequence (O96028 whole entry): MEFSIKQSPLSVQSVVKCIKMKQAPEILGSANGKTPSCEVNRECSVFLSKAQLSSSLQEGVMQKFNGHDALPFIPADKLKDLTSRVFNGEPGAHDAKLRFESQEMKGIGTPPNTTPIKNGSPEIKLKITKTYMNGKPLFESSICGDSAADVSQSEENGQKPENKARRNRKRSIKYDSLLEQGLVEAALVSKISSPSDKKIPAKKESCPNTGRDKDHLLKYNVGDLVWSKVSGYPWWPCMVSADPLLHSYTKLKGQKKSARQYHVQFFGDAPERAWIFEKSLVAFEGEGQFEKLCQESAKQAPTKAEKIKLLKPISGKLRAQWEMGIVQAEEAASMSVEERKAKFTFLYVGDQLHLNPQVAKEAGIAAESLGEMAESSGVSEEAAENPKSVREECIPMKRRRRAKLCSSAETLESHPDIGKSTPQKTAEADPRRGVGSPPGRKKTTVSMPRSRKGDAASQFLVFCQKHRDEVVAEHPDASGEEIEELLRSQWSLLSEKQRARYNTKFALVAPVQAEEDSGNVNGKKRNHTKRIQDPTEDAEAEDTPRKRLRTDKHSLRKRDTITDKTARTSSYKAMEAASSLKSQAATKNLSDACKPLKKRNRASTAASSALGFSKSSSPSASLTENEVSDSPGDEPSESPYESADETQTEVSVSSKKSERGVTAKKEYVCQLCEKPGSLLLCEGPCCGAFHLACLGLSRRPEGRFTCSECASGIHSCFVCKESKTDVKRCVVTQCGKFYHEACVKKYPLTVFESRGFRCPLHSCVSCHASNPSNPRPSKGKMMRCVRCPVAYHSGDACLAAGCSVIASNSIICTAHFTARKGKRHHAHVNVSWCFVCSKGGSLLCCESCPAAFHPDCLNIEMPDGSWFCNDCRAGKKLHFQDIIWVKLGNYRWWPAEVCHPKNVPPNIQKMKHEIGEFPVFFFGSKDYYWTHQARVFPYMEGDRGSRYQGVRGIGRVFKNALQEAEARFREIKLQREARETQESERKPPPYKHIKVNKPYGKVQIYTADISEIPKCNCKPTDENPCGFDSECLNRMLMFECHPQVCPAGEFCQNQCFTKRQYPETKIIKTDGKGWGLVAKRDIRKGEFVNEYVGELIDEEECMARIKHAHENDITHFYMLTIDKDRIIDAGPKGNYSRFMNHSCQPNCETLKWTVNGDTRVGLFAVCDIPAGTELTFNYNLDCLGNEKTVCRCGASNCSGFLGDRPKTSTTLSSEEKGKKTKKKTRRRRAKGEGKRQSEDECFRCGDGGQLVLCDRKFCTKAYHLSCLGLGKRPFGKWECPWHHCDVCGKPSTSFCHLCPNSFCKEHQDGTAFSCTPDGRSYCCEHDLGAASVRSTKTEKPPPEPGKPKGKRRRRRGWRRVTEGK
The format is biochemical.

The target in experiment [15] is 1-phosphatidylinositol 4,5-bisphosphate phosphodiesterase gamma-1 (Homo sapiens, UniProt P19174). As to the kind of experiment: Counterscreen for inhibitors of phospholipase C isozymes (PLC-B3): Fluorescence-based biochemical high throughput dose response assay to identify inhibitors of phospholipase C isozymes (PLC-gamma1).
Experiment [16] has as its target 1-phosphatidylinositol 4,5-bisphosphate phosphodiesterase beta-3 (Homo sapiens, UniProt Q01970). Briefly: Fluorescence-based biochemical high throughput dose response assay to identify inhibitors of phospholipase C isozymes (PLC-B3).
The target in experiment [17] is T6, Oxysterols receptor LXR-beta (Homo sapiens, UniProt P55055).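 Note: Cell-based luminescence dose-response assay of agonist activity at LXR, run as a confirmatory counterscreen to a daf-12 agonist screen; HEK293 cells with Gal4-LXR fusion and GAL4-driven luciferase reporter; agonist potency from rising luciferase signal of a Gal4-LXR reporter.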
T6 sequence (P55055 whole entry): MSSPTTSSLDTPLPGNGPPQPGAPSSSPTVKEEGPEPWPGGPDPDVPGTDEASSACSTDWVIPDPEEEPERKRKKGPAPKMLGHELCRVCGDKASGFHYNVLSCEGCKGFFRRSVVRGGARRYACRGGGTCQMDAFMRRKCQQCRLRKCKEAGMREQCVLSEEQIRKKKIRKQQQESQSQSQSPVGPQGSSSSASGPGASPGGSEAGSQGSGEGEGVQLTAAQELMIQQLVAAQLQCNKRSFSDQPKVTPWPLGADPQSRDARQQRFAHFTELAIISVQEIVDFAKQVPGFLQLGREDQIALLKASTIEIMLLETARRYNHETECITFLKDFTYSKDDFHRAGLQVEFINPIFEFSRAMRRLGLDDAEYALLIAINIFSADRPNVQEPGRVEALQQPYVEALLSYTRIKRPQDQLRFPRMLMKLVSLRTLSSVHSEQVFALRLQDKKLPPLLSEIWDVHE
The format is functional, cell-based.

In another experiment the target is Kallikrein-7 (Homo sapiens, UniProt P49862). Briefly: Fluorescence Intensity-based biochemical primary high throughput dose response assay to identify activators of kallikrein-7 (K7) zymogen.
The target in the next experiment is Nonstructural protein 1 (Influenza A virus, UniProt Q194T2). It is filed as functional, Influenza A virus (A/California/07/2009(H1N1)).
Nonstructural protein 1, sequence (Q194T2 whole entry): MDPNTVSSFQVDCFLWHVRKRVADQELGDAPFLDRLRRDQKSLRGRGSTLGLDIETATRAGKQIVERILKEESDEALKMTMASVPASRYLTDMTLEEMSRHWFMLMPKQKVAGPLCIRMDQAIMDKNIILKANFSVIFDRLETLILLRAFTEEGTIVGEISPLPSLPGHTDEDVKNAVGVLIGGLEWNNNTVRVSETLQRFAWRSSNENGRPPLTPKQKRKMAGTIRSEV

Kallikrein-7, sequence (P49862 whole entry): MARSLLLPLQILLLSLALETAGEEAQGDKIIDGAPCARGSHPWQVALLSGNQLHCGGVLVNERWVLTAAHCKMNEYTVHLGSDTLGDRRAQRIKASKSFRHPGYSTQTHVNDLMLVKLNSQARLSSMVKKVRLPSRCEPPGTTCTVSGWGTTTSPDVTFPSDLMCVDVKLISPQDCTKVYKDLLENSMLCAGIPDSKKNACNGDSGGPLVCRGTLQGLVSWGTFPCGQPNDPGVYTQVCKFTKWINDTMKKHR
Protein Tat, sequence (P04608 whole entry): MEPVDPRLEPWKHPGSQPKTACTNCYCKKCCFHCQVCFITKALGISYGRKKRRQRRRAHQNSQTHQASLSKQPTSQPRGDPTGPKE
RNA-editing ligase 1, mitochondrial, sequence (P86926 whole entry): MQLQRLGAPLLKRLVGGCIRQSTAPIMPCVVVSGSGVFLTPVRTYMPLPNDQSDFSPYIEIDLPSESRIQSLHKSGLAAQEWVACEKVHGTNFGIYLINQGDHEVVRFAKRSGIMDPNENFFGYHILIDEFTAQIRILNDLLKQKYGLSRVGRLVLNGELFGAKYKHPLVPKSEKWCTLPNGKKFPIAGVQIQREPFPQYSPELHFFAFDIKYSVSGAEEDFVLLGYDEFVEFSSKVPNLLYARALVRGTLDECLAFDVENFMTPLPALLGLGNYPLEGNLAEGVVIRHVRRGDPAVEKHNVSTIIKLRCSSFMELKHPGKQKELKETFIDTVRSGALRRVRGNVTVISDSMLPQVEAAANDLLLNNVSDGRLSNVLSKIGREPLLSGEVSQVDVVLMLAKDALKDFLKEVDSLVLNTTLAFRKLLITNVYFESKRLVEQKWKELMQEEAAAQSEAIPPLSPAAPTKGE
Intestinal-type alkaline phosphatase (Homo sapiens, UniProt P09923), sequence (P09923 whole entry): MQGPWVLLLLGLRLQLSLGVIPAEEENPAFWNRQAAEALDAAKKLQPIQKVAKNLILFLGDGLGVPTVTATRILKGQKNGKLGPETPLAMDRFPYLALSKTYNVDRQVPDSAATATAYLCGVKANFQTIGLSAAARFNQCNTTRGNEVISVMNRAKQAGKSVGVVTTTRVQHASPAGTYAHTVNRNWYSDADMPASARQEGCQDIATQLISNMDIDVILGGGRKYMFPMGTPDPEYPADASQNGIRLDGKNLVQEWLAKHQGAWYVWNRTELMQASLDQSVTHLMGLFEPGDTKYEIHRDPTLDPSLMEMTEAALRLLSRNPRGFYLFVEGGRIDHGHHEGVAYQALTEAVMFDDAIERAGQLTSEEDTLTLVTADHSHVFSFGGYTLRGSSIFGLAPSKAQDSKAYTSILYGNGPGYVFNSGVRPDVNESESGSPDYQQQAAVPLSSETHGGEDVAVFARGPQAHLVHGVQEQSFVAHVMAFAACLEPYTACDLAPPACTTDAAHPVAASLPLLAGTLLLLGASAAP
1-phosphatidylinositol 4,5-bisphosphate phosphodiesterase gamma-1, sequence (P19174 whole entry): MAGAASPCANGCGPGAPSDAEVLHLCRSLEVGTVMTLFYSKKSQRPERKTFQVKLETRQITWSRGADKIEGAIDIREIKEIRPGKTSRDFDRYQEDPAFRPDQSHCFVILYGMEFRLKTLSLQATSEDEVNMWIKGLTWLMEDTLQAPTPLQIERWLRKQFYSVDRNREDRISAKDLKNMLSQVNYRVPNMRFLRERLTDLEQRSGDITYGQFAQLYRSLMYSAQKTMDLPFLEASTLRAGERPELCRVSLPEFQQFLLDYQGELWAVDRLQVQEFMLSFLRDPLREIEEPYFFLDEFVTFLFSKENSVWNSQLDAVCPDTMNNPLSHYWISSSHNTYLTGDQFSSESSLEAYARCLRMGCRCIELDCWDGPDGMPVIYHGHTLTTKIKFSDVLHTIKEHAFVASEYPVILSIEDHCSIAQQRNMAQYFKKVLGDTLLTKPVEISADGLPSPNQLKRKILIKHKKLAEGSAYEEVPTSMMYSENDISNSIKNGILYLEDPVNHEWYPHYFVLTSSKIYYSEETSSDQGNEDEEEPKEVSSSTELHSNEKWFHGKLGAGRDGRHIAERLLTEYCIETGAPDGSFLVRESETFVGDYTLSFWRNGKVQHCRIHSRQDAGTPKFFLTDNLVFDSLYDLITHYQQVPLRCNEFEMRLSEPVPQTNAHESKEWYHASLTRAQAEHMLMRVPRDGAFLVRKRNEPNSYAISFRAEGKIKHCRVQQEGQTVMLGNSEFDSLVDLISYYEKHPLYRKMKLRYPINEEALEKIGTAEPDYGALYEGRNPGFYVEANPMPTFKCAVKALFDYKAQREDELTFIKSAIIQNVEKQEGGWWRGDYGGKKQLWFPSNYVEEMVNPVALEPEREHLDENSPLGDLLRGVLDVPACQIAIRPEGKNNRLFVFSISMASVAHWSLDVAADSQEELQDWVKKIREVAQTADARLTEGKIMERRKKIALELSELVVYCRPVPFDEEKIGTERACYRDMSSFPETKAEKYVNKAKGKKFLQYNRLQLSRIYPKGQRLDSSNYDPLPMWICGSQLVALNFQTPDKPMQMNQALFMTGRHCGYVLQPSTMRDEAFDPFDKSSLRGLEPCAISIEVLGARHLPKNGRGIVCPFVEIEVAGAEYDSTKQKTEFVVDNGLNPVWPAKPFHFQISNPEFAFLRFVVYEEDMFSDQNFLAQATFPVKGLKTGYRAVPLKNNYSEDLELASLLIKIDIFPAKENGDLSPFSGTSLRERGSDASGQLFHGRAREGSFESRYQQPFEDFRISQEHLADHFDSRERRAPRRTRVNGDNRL
Intestinal-type alkaline phosphatase (Mus musculus, UniProt P24822), sequence (P24822 whole entry): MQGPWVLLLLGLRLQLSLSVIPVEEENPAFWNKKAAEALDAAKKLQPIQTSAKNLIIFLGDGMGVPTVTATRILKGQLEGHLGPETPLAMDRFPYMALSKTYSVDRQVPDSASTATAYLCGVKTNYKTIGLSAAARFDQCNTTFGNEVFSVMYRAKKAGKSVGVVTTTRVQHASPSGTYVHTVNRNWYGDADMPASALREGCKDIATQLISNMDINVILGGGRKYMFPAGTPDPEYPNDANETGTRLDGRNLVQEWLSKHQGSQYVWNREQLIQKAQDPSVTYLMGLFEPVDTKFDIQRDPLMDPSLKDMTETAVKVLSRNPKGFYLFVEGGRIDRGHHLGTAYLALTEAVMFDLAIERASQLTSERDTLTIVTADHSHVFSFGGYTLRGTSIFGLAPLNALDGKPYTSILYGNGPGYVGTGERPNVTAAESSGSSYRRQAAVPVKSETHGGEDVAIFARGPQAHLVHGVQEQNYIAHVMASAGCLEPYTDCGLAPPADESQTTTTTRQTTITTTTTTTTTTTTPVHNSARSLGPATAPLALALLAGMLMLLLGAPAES
1-phosphatidylinositol 4,5-bisphosphate phosphodiesterase beta-3, sequence (Q01970 whole entry, the tested form may be a part): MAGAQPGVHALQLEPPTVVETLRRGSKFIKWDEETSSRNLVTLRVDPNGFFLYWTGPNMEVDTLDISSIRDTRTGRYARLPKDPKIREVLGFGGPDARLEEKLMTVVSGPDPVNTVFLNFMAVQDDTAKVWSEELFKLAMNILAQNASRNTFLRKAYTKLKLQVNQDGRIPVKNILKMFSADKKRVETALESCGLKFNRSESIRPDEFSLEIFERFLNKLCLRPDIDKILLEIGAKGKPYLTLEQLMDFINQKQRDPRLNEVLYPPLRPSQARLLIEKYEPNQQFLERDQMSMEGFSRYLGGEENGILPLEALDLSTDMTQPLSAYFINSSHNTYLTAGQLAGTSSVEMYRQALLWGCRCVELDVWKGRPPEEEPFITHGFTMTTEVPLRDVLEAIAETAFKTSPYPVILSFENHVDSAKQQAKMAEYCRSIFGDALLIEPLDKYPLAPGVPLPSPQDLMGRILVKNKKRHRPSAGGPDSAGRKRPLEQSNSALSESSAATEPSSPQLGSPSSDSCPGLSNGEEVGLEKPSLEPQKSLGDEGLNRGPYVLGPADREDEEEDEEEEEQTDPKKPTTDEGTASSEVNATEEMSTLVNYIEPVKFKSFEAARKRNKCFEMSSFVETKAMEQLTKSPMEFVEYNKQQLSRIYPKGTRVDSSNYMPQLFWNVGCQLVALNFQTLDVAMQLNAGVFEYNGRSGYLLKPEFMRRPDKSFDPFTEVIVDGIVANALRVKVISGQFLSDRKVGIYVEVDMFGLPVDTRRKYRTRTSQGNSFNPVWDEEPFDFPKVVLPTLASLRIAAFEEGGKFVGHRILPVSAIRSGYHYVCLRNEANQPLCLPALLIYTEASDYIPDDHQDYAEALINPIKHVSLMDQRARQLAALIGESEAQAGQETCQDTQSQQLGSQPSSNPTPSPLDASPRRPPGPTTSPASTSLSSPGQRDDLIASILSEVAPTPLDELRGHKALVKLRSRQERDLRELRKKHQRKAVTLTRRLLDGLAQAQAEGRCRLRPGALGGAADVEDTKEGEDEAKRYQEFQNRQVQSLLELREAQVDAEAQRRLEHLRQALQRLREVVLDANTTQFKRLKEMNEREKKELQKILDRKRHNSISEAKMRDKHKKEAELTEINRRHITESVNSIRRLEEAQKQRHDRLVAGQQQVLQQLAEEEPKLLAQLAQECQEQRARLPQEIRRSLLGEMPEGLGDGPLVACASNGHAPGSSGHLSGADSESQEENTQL

`COc1ccc(C(CCNCc2ccc(OC(C)C)cc2)c2ccccc2OC)cc1` (configuration not stated): the AC50 was 5.99 µM (active) in [1]; 7.21 µM (active) in the experiment with INS1; 6.44 µM (active) in experiment [2]; 15.3 µM (active) in experiment [3]; 4.38 µM (active) in experiment [4]. Also, in experiment [5], the IC50 is > 96.6 µM (inactive).

For `CC(=O)Nc1ccc(NC(=O)CSCc2cnn(-c3ccccc3)c2-n2cccc2)cc1`, the IC50 at Protein Tat is > 100 µM (active).

Turning to `O=C1C(NS(=O)(=O)c2ccc(Br)s2)=C(N2CCCCC2)C(=O)c2ccccc21`, the AC50 in [6] and in [7] was > 70 µM (inactive) each time.

With `Cc1cc(/C=C2\SC(=S)NC2=O)c(C)n1-c1ccccc1`, the EC50 in the experiment “cells” was > 67.6 µM (inactive).

On to `COc1cccc(C2=C(NC(=O)c3ccccc3)C(=O)c3ccccc3C2=O)c1`, for which the concentration at half-maximal activity (AC50) in experiment [6] is 21 µM (active); in experiment [7], 10.5 µM (active).

Take `O=C(/C=C/c1ccco1)NC(=S)Nc1ccc(C(=O)O)cc1`: the EC50 in experiment [8] is 8.75 µM (active); in experiment [9] it was 12.8 µM (active). Further, the IC50 in experiment [10] was 2.97 µM (active); in experiment [11], 45 µM (active); in experiment [12], 21.8 µM (active); in experiment [13] it was 147 µM (active); in experiment [15] it was > 122 µM (inactive); in experiment [16], > 122 µM (inactive). In experiment [14], the AC50 was 13 µM (active).

Turning to `Cc1cc(/C=C2\SC(=S)N=C2O)c(C)n1-c1ccccc1`, in experiment [17], the EC50 is > 67.6 µM (inactive).

Regarding `CCc1ccccc1NC(=O)CSc1nc2nnc(C)c-2c(N)n1-c1ccc(OC)cc1`, on Kallikrein-7, the EC50 was 4.1 µM (active).

On to `COC(=O)C1=C(C)N(Cc2ccc(C(F)(F)F)cc2)C(NCc2cccc(C(F)(F)F)c2)=NC1c1ccccc1C(F)(F)F` (configuration not stated), for which, in [5], the IC50 was > 96.6 µM (inactive).

`Oc1ccccc1C=Nc1ccc(F)c2c(O)[nH]nc12`: the IC50 at Nonstructural protein 1 was 41.6 µM (active); on Protein Tat, 3.3 µM (inconclusive).

Take `O=C(Nc1ncc2c(n1)-c1ccccc1OC2)c1ccc(F)cc1`: the EC50 at Kallikrein-7 is > 69.5 µM (inactive).

The values are drawn from ChEMBL document CHEMBL1201862, “PubChem BioAssay data set” (2004).
